Read-outs that look alike come from different tables or passages of the source.
Columns and labels:
B/Florida/04/2006 = test: Antiviral activity (drug efficacy evaluation by concentration) against B/Florida/04/2006; format: cell-based, B type influenza virus
[1] = test system: A/California/07/2009 (H1N1); test: Antiviral activity (drug efficacy evaluation by concentration) against A/California/07/2009 (H1N1); format: cell-based, A type influenza virus; details: Influenza A virus
A/Perth/16/2009 (H3N2) = test: Antiviral activity (drug efficacy evaluation by concentration) against A/Perth/16/2009 (H3N2); format: cell-based, A type influenza virus; details: Influenza A virus
[2] = CC50, third EC50/CC50 column pair (c7), beside the EC50 of c6
[3] = read-out: EC50 B/Florida/04/2006, B/Florida/04/2006
[4] = H1N1, A/California/07/2009 (H1N1), read-out: EC50 A/California/07/2009 (H1N1)
[5] = H3N2, A/Perth/16/2009 (H3N2), read-out: EC50 A/Perth/16/2009 (H3N2)
[6] = CC50 B/Florida/04/2006, cytotoxicity in the B/Florida/04/2006 assay

Structure (SMILES) | EC50 (B/Florida/04/2006) | EC50 ([1]; H1N1, read-out: EC50) | EC50 (A/Perth/16/2009 (H3N2); H3N2, read-out: EC50) | CC50 (in vitro; CC50, beside the EC50 of c2) | CC50 (in vitro; CC50, beside the EC50 of c4) | CC50 (in vitro; [2]) | EC50 (B/Florida/04/2006; [3]) | EC50 [1, 4] | EC50 (A/Perth/16/2009 (H3N2); [5]) | CC50 (in vitro; [6]) | melting point
Brc1ccc(Cc2nnc(CC3CCCc4ccccc43)o2)cc1 (stereo not drawn) [Compound 109, 2-(4-bromobenzyl)-5-((1,2,3,4-tetrahydronaphthalen-1-yl)methyl)-1,3,4-oxadiazole] | 34.7 µM | 45.9 µM | 32.4 µM | > 50 µM | > 50 µM | > 50 µM |  |  |  |  | 
CC(C)c1ccccc1CCc1nnc(Cc2ccc(Br)cc2)o1 [Compound 92, 2-(4-bromobenzyl)-5-(2-isopropylphenethyl)-1,3,4-oxadiazole] | 6.59 µM | 7.17 µM | 6.42 µM | > 50 µM | > 50 µM | > 50 µM |  |  |  |  | 
Cc1ccccc1CCc1nnc(Cc2ccc(Br)cc2)o1 [Compound 103, 2-(4-bromobenzyl)-5-(2-methylphenethyl)-1,3,4-oxadiazole] | 3.15 µM | 3.1 µM | 3 µM | > 50 µM | > 50 µM | > 50 µM |  |  |  |  | 
Brc1cccc(Cc2nnc(SCc3ccccc3-c3ccccc3)o2)c1 [Compound 104, 2-(([1,1′-biphenyl]-2-ylmethyl)thio)-5-(3-bromobenzyl)-1,3,4-oxadiazole] | 42.8 µM | > 50 µM | > 50 µM | > 50 µM | > 50 µM | > 50 µM |  |  |  |  | 
Cc1nn(Cc2nnc(SC(c3ccccc3)c3ccccc3)o2)c(C)c1Br [Compound 25, 2-(benzhydrylthio)-5-((4-bromo-3,5-dimethyl-1H-pyrazol-1-yl)methyl)-1,3,4-oxadiazole] |  |  |  |  |  |  | 5.18 µM | 2.5 µM | 2 µM | 9.4 µM | 
Cc1nn(Cc2nnc(SCc3ccccc3-c3ccoc3)o2)c(C)c1Br [Compound 34, 2-((4-bromo-3,5-dimethyl-1H-pyrazol-1-yl)methyl)-5-((2-(furan-3-yl)benzyl)thio)-1,3,4-oxadiazole] |  |  |  |  |  |  | 4.48 µM | 1.4 µM | 1.8 µM | 22.8 µM | 
Brc1cnn(Cc2nnc(SCc3ccccc3-c3ccccc3)o2)c1 [Compound 3, 2-(([1,1′-biphenyl]-2-ylmethyl)thio)-5-((4-bromo-1H-pyrazol-1-yl)methyl)-1,3,4-oxadiazole] |  |  |  |  |  |  | 1.21 µM | 1.36 µM | 1.75 µM | > 50 µM | 
c1ccc(-c2cnn(Cc3nnc(SCc4ccccc4-c4ccccc4)o3)c2)cc1 [Compound 30, 2-(([1,1′-biphenyl]-2-ylmethyl)thio)-5-((4-phenyl-1H-pyrazol-1-yl)methyl)-1,3,4-oxadiazole] |  |  |  |  |  |  | > 50 µM | > 50 µM | 13 µM | > 50 µM | 
CC(C)c1ccccc1CCc1nnc(Cc2ccc(OC(F)(F)F)cc2)o1 [Compound 93, 2-(2-isopropylphenethyl)-5-(4-(trifluoromethoxy)benzyl)-1,3,4-oxadiazole] | 45.1 µM | 22.1 µM | 31.5 µM | > 50 µM | > 50 µM | > 50 µM |  |  |  |  | 
Cc1ccc(/C=C/c2nnc(Cc3cccc(Br)c3)o2)c(Cl)c1 [Compound 195, 2-(3-bromobenzyl)-5-(2-chloro-4-methylstyryl)-1,3,4-oxadiazole] | 5.74 µM | 6.14 µM | 5.79 µM | > 50 µM | > 50 µM | > 50 µM |  |  |  |  | 
Brc1ccc(Nc2nnc(CCc3ccccc3-c3ccccc3)o2)cc1 [Compound 118, 5-(2-([1,1′-biphenyl]-2-yl)ethyl)-N-(4-bromophenyl)-1,3,4-oxadiazol-2-amine] | > 50 µM | 43.9 µM | > 50 µM | > 50 µM | > 50 µM | > 50 µM |  |  |  |  | 
c1ccc(Cc2nnc(SCc3ccccc3-c3ccccc3)o2)cc1 [Compound 18, 2-(([1,1′-biphenyl]-2-ylmethyl)thio)-5-benzyl-1,3,4-oxadiazole] |  |  |  |  |  |  | 5.18 µM | 6.1 µM | 6.8 µM | > 50 µM | 
Cc1cccc(C)c1CCc1nnc(Cc2ccc(Br)cc2)o1 [Compound 135, 2-(4-bromobenzyl)-5-(2,6-dimethylphenethyl)-1,3,4-oxadiazole] | 5.63 µM | 6.4 µM | 4.38 µM | > 50 µM | > 50 µM | > 50 µM |  |  |  |  | 
FC(F)(c1ccc(Br)cc1)c1nnc(SCc2ccccc2-c2ccccc2)o1 [Compound 74, 2-(([1,1′-biphenyl]-2-ylmethyl)thio)-5-((4-bromophenyl)difluoromethyl)-1,3,4-oxadiazole] |  |  |  |  |  |  | > 50 µM | 21.2 µM | 11 µM | > 50 µM | 
Cc1nn(Cc2nnc(SCC(=O)c3ccccc3-c3ccccc3)o2)c(C)c1Br [Compound 13, 1-([1,1′-biphenyl]-2-yl)-2-((5-((4-bromo-3,5-dimethyl-1H-pyrazol-1-yl)methyl)-1,3,4-oxadiazol-2-yl)thio)ethan-1-on] |  |  |  |  |  |  | 42.5 µM | > 50 µM | > 50 µM | > 50 µM | 
FC(F)(F)Oc1ccc(Cc2nnc(SCc3ccccc3-c3ccccc3)o2)cc1 [Compound 106, 2-(([1,1′-biphenyl]-2-ylmethyl)thio)-5-(4-(trifluoromethoxy)benzyl)-1,3,4-oxadiazole] | 12.1 µM | 11.5 µM | 11.8 µM | > 50 µM | > 50 µM | > 50 µM |  |  |  |  | 
Brc1ccn(Cc2nnc(SCc3ccccc3-c3ccccc3)o2)n1 [Compound 11, 2-(([1,1′-biphenyl]-2-ylmethyl)thio)-5-((3-bromo-1H-pyrazol-1-yl)methyl)-1,3,4-oxadiazole] |  |  |  |  |  |  | 12.9 µM | 13.2 µM | 12.5 µM | > 50 µM | 
C/C(=C\c1ccccc1C)c1nnc(Cc2ccc(Br)cc2)o1 [Compound 144, 2-(4-bromobenzyl)-5-(1-(o-tolyl)prop-1-en-2-yl)-1,3,4-oxadiazole] | > 50 µM | 48.7 µM | 49.3 µM | > 50 µM | > 50 µM | > 50 µM |  |  |  |  | 
CC(C)c1ccccc1OCc1nnc(Cc2ccc(Br)cc2)o1 [Compound 115, 2-(4-bromobenzyl)-5-((2-isopropylphenoxy)methyl)-1,3,4-oxadiazole] | 45.1 µM | 44.9 µM | 38.2 µM | > 50 µM | > 50 µM | > 50 µM |  |  |  |  | 
CC(C)c1ccccc1OCc1nnc(Cc2ccccc2)o1 [Compound 114, 2-benzyl-5-((2-isopropylphenoxy)methyl)-1,3,4-oxadiazole] | 12 µM | 17.7 µM | 17.7 µM | 21.8 µM | > 50 µM | > 50 µM |  |  |  |  | 
Brc1ccc(Cc2nnc(CCc3ccccc3-c3ccccc3)o2)cc1 [Compound 119, 2-(2-([1,1′-biphenyl]-2-yl)ethyl)-5-(4-bromobenzyl)-1,3,4-oxadiazole] | > 50 µM | > 50 µM | > 50 µM | > 50 µM | > 50 µM | > 50 µM |  |  |  |  | 
CCn1c(Cn2nc(C)c(Br)c2C)nnc1SCc1ccccc1-c1ccccc1 [Compound 24, 3-(([1,1′-biphenyl]-2-ylmethyl)thio)-5-((4-bromo-3,5-dimethyl-1H-pyrazol-1-yl)methyl)-4-ethyl-4H-1,2,4-triazole] |  |  |  |  |  |  | > 50 µM |  | > 50 µM | > 50 µM | 137.8 °C
FC(F)(F)c1cccc(/C=C/c2nnc(Cc3ccc(Br)cc3)o2)c1Cl [Compound 152, 2-(4-bromobenzyl)-5-(2-chloro-3-(trifluoromethyl)styryl)-1,3,4-oxadiazole] | > 50 µM |  | > 50 µM | > 50 µM | > 50 µM | > 50 µM |  |  |  |  | 118.9 °C
Cc1ccc(Cc2nnc(/C=C/c3ccccc3C(C)C)o2)cc1Br [Compound 145, 2-(3-bromo-4-methylbenzyl)-5-(2-isopropylstyryl)-1,3,4-oxadiazole] | > 50 µM |  | 49.1 µM | > 50 µM | > 50 µM | > 50 µM |  |  |  |  | 111.2 °C
COc1cccc(Cc2nnc(/C=C/c3ccc(F)cc3Cl)o2)c1 [Compound 202, (E)-2-(2-chloro-4-fluorostyryl)-5-(3-methoxybenzyl)-1,3,4-oxadiazole] | > 50 µM |  | > 50 µM | > 50 µM | > 50 µM | > 50 µM |  |  |  |  | 131.7 °C
Fc1ccc(/C=C/c2nnc(Cc3ccc(Cl)c(Cl)c3)o2)c(Cl)c1 [Compound 208, 2-(2-chloro-4-fluorostyryl)-5-(3,4-dichlorobenzyl)-1,3,4-oxadiazole] | 1.19 µM |  | 0.72 µM | > 50 µM | > 50 µM | > 50 µM |  |  |  |  | 179.9 °C
Brc1ccc(NCc2nnc(SCc3ccccc3-c3ccccc3)o2)cc1 [Compound 47, N-((5-(([1,1′-biphenyl]-2-ylmethyl)thio)-1,3,4-oxadiazol-2-yl)methyl)-4-bromoaniline] |  |  |  |  |  |  | > 50 µM | > 50 µM |  | > 50 µM | 
CC(C)c1ccccc1/C=C/c1nnc(Cc2ccc(F)c(Cl)c2)o1 [Compound 131, 2-(3-chloro-4-fluorobenzyl)-5-(2-isopropylstyryl)-1,3,4-oxadiazole] | 1.02 µM | 0.927 µM | 0.835 µM |  |  |  |  |  |  |  | 

Reference: US11149033B2, “Heteroaryl compound, enantiomer, diastereomer or pharmaceutically acceptable salt thereof, and antiviral composition containing same as active ingredient” (priority 2016, dated 2021)
